According to patent publication US6541463B1, “Inhibitors of type 5 and type 3 17β-hydroxysteroid dehydrogenase and methods for their use” (Endorecherche, Inc., priority 1998, dated 2003):

Legend:
[1] = biological target: T1, human type 2 17β-hydroxysteroid dehydrogenase (Homo sapiens, UniProt P37059); experiment: Enzymatic assay for type 2 17β-HSD; assay type: biochemical; details: for inhibition: read-out: Inhibition Type 2 17β-HSD Activity [% Inh. at 3 · 10^−8M]; for IC50: read-out: Inhibition Type 2 17β-HSD Activity IC50
T1 construct: expressed in transfected cells; host or cells: 293 cells, transient transfection; microsomal fraction (100 000×g pellet)
T1 sequence (P37059 1-387): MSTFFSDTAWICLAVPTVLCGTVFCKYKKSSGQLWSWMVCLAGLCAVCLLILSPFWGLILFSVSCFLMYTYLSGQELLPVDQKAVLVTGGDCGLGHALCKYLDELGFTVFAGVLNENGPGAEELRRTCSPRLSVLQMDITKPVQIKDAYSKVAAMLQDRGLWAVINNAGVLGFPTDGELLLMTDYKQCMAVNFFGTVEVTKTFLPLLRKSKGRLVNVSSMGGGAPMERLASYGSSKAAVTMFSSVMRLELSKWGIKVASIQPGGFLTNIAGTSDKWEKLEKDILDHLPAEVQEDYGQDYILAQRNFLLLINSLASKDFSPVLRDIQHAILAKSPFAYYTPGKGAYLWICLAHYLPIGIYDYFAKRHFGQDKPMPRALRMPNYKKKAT
Method in brief: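 Enzymes from transiently transfected 293 cells (cytosol for type 1, microsomes for types 2 and 3 17β-HSD) were incubated 1 h at 37° C in pH 7.4 phosphate/20% glycerol with 2 mM NADPH or NAD+ and 0.1 μM 14C-substrate (estrone, 4-dione, or DHT for 3α-HSD); metabolites quantified by TLC; preliminary % inhibition at 3.10^−6M.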

ZR-75-1 cells [2] = experiment: Estrogenic activity: stimulation of proliferation of ZR-75-1 cells; assay type: cell-based, human
Protocol: […] The manner in which the stimulation is determined is described in “Other Tests; C-Estrogenic/Antiestrogenic activity” Lower numbers are desirable. ND means that a determination was not done.
(§1) Estrogenic/antiestrogenic activity of some preferred compounds has been measured using the […] human breast cancer cell line as described in more detail below.
(§2) All media and medium supplments were purchased from Sigma. Cells were subcultured weekly by treatment with a pancreatic solution containing EDTA (0.2 g/L). The cell cultures used for the experiments herein describied were between passages 89 and 94.
(§3) Cells in their logarithmic growth phase were harvested, briefly centrifuged, and resuspended in RPMI 1640. Cells were then plated in triplicate in LIMBRO 24-well plastic culture plates (2 cm^2/well). Since plating density influences the effect of hormones on ZR-75-1 cell growth, cells were plated at a density of 1×10^4 cells/well. […] Control cultures received the ethanol vehicle only. Cells were then allowed to grow at 37° C. for 10 days with medium changes (of identical composition) every 2 days.
(§4) After E2 and/or antiestrogen treatment, cells were harvested by addition of 0.5 ml of a pancreatin solution (Sigma) for 5-10 min at 37° C. before addition of 0.5 mnl of RPMI 1640 containing 5% dextran coated […] bovine serum in order to block enzymatic action. Cell number (0.10 ml aliquot) was determined by measurement of DNA content as previously described (Simard et al., Endocrinology 126: 3223-3231,1990).

ZR-75-1 cells [3] = experiment: Antiestrogenic activity: inhibition of E2-induced proliferation of ZR-75-1 cells; assay type: cell-based, human; set-up: ZR-75-1 Activity, E2 / ZR-75-1 Activity E2 E^−6: unit not given here
Protocol: The manner in which the inhibition is determined is described in “Other Tests; C-Estrogenic/Antiestrogenic Activity”. Lower numbers are desirable. ND means that a determination was not done.
as §1, §2, §3, §4

[4] = Table 4′, bracketed values, 3 · 10^−8M
[5] = Table 4′, E2-induced proliferation, 3E^−8

Compound	inhibition [1, 4]	ZR-75-1 Activity, Basal E^−6 (ZR-75-1 cells [2]; Table 4′)	ZR-75-1 Activity, Basal E^−8 (ZR-75-1 cells [2]; Table 4′)	ZR-75-1 Activity, E2 3E^−8 (ZR-75-1 cells [3]; [5])	IC50 ([1]; Table 4′)	also measured
CCS(=O)(=O)Oc1ccc2c(c1)CCC1C2CCC2(C)C1CCC21CCC(C)(C)C(=O)O1 (centres unmarked) [EM-1364-CS]	73%	+36%	0%	−12%	–	–
CC1(C)CCC2(CCC3C4CCc5cc(OS(C)(=O)=O)ccc5C4CCC32C)OC1=O (centres unmarked) [EM-1365-CS]	–	0%	−17%	−17%	> 10 µM	–
CCOc1ccc2c(c1)CCC1C2CC[C@@]2(C)C1CC[C@@]21CCC(C)(C)C(=O)O1 (stereo partly drawn) [EM-1369, 3-Ethoxy-1,3,5(10)-estratrien-17(R)-spiro-2′-(5′,5′-dimethyl-6′-oxo)-tetrahydropyran]	62%	+84%	0%	+18%	–	–
COC(=O)C1CCC2(CCC3C4CCc5cc(O)ccc5C4CCC32C)OC1=O [PB-132-146, 3-Hydroxy-1,3,5(10)-estratrien-17(R)-2′-(5′-methoxycarbonyl-6′-oxo)tetrahydropyran]	75%	91%	0%	0%	–	–
COCCOc1cc2c(cc1C#N)C1CC[C@@]3(C)C(CC[C@@]34CCC(C)(C)C(=O)O4)C1CC2 (some centres unmarked) [EM-1396]	–	0%	0%	+12%	> 10 µM	–
COCCOc1cc2c(cc1C(=O)OC)C1CC[C@@]3(C)C(CC[C@@]34CCC(C)(C)C(=O)O4)C1CC2 (stereo partly drawn) [EM-1402-CS, 2-Carbomethoxy-3-(2″-methoxyethyloxy)-1,3,5(10)-estratrien 17(R)-spiro-2′-(5′,5′-dimethyl-6′-oxo)tetrahydropyran]	–	−10%	0%	0%	> 10 µM	inhibition at 1 µM (ZR-75-1 cells [3]; Homo sapiens, ZR-75-1, 10^−6 M inhibitor, negative number = stimulation reduced, read-out: percentage of inhibition of E2-induced proliferation of ZR-75-1 cells): 61%
COc1ccc2c(c1)CCC1C2CCC2(C)C1CCC21CCC(C)(C)C(=O)O1 (centres unmarked) [EM-1370]	33%	+24%	0%	0%	–	–
CC1CCC2(CCC3C4CCc5ccccc5C4CCC32C)OC1=O (centres unmarked) [EM-1025]	64%	201%	20%	0%	–	–
COCCOc1cc2c(cc1Cl)C1CCC3(C)C(CCC34CCC(C)(C)C(=O)O4)C1CC2 (centres unmarked) [EM-1371-CS]	–	+137%	0%	0%	> 10 µM	–
CC(=O)[C@@]1(OC(=O)CCCCF)CCC2C3C=C(C)C4=CC(=O)CC[C@]4(C)C3CC[C@@]21C (some centres unmarked) [EM-1195-CS]	–	–	–	–	–	Inhibition Type 2 17β-HSD Activity [% Inh.] ([1]; at 3.10^-8M): [40] %; ZR-75-1 Activity, Basal (ZR-75-1 cells [2]; E^−6, in %): 18; ZR-75-1 Activity, Basal (ZR-75-1 cells [2]; E^−8, in %): −11; ZR-75-1 Activity, E2 (ZR-75-1 cells [3]; E2): −40; ZR-75-1 Activity, E2 (ZR-75-1 cells [3]; E2, E^−8): −38
CC1CC(=O)OC2(CCC3C4CCc5cc(O)ccc5C4CCC32C)C1 [PB-132-142, 3-Hydroxy-1,3,5(10)-estratrien-17(R)-spiro-2′-(4′-methyl-6′-oxo)tetrahydropyran]	69%	91%	38%	0%	–	–
COCCOc1ccc2c(c1)CCC1C2CCC2(C)C1CCC21CCC(C)(C)C(=O)O1 [EM-1368-CS, 3-Methoxyethoxy-1,3,5(10)-estratrien-17(R)-spiro-2′-(5′,5′-dimethyl-6′-oxo)-tetrahydropyran]	73%	+15%	0%	0%	–	–
CC1CCC2(CCC3C4CCc5cc(O)c([N+](=O)[O-])cc5C4CCC32C)OC1=O [EM-1131, 2-Nitro-1,3,5(10)-estratrien-3-ol-17(R)-spiro-2′-(5′-methyl-6′-oxo)tetrahydropyran]	70%	15%	7%	0%	–	–
CC1(C)CC[C@@]2(CCC3C4CCc5cc(C(N)=O)ccc5C4CCC32C)OC1=O (some centres unmarked) [EM-1404]	–	0%	0%	0%	> 10 µM	–
COc1ccc2c(c1)C(=O)CC1C3CCC4(CCC(C)(C)C(=O)O4)C3(C)CCC21O (centres unmarked) [EM-1386]	–	−12%	0%	0%	> 10 µM	–
C=CCC1CCC2(CCC3C4CCc5cc(O)ccc5C4CCC32C)OC1=O [PB-132-152, 3-Hydroxy-1,3,5(10)-estratrien-17(R)-2′-(5′-allyl-6′-oxo)tetrahydropyran]	50%	90%	39%	−11%	–	–
CCC[C@@H]1CC2C3C=CC4=CC(=O)CC[C@]4(C)C3CC[C@]2(C)C1=O (some centres unmarked) [EM-1097]	–	–	–	–	–	inhibition at 3 µM ([1]; 3 · 10^−6 M, value in square brackets, read-out: Inhibition Type 2 17B-HSD Activity [% Inh. at 3 · 10^−6 M]): 53%; ZR-75-1 Activity, Basal E^−6 (ZR-75-1 cells [2]): 10; ZR-75-1 Activity, Basal E^−8 (ZR-75-1 cells [2]): −8; ZR-75-1 Activity, E2 3E^−8 (ZR-75-1 cells [3]; with E2, 3E^−8): 0; ZR-75-1 Activity E2 E^−6 (ZR-75-1 cells [3]; with E2, E^−6): 0
COCCOc1cc2c(cc1C(N)=O)C1CC[C@@]3(C)C(CC[C@@]34CCC(C)(C)C(=O)O4)C1CC2 (stereo partly drawn) [EM-1424, 2-Carbamoyl-3-(2″-methoxyethyloxy)-1,3,5(10)-estratrien 17(R)-spiro-2′-(5′,5′-dimethyl-6′-oxo)tetrahydropyran]	–	0%	0%	−11%	> 10 µM	–
C[C@]12CCC3c4ccc(O)cc4CCC3C1CC[C@@]21CCCC(=O)O1 (stereo partly drawn) [EM-919, 1,3,5(10)-estratrien-3-ol-17(R)-spiro-2′(6′-oxo)tetrahydropyran]	86%	−20%	0%	−18%	–	–
CC12CCC3c4ccc(O)cc4CCC3C1CCC21CC=CC(=O)O1 [PB-132-140, 3-hydroxy-1,3,5(10)-estratrien-17(R)-spiro-2′-(4′,5′-dihydro-6′-oxo)pyran]	–	71%	15%	0%	–	–
CC1CCC2(CCC3C4CCc5cc(O)c([N+](=O)[O-])cc5C4CCC32C)OC1=O [EM-1126, 2-Nitro-1,3,5(10)-estratrien-3-ol-17(R)-spiro-2′-(5′-methyl-6′-oxo)tetrahydropyran]	–	−89%	0%	0%	–	Inhibition Type 2 17β-HSD Activity [% Inh. at 3 · 10^−8M] [1, 4]: [59] %
